Measurements as given in paper PMC1906830, “In vivo optical imaging of integrin αV-β3 in mice using multivalent or monovalent cRGD targeting vectors” (Molecular Cancer, 2007).

Columns and labels:
[1] = test system: HEK293(β1) cells (αVβ3-negative); test: In vitro binding of Cy5-labeled peptides, confocal laser scanning microscopy; assay type: cell-based, human; details: 0.1 μM Cy5-labeled peptide, 30 min, 37°C, result in words
Description: (§1) Cells were seeded on sterilized 18-mm-diameter glass coverslips in 12-well plates (3 × 10^5 cells per well), and incubated overnight at 37°C. […] They were then washed with PBS, fixed with 2% paraformaldehyde at room temperature for 10 min. The nuclei were stained with 5 μM Hoechst 33342, and the coverslips were inverted onto glass slides using Mowiol (Calbiochem, San Diego, CA) mounting medium.

[2] = test system: HEK293(β3) cells (high levels of αVβ3); test: as above; assay type: cell-based, human; details: 0.1 μM Cy5-labeled peptide, 30 min, 37°C, result in words
Description: as §1

HEK293(β3) s.c. tumors [3] = test: Whole body in vivo optical imaging (fluorescence reflectance) of tumor-bearing mice; set-up: species or system Swiss nude mice
HEK293(β3) s.c. tumors [4] = test: Histological distribution of RGD-peptides in excised tumors (CLSM); assay type: in vivo, Swiss nude mice; details: HEK293(β3) s.c. tumor excised 3 hr after 10 nmol i.v., cryosections
Description: Sections of 20–30 μm thickness were fixed with 2% paraformaldehyde at room temperature for 10 min. The nuclei were stained with 5 μM Hoechst 33342, and the coverslips were mounted using Mowiol and kept at 4°C in the dark until observation using CLSM.

“Cy5-RAFT-c(-RGDfK-)4 (bicyclic or more) [Cy5-labeled tetramer: four c[-RGDfK-] grafted via oxime bond on RAFT cyclic decapeptide, Cy5 on the opposite side lysine]” was tested, and the “binding to HEK293(β1) cells (CLSM)” value [1] was “none of these peptides bound”, the “binding to HEK293(β3) cells (CLSM)” value [2] was “very strongly” and the “tumor contrast (T/S ratio, tumor vs. skin)” value (HEK293(β3) s.c. tumors [3]; HEK293(β3) s.c. tumor, 10 nmol i.v., 4 hr p.i., mean ± SD, n = 3–4) was 15.9 ± 3.6. For the same substance, the “renal uptake” value (HEK293(β3) s.c. tumors [3]; i.v. injection, tumor-bearing or normal mice, not modified by excess of unlabeled tetramer or monomer) was “higher renal uptake than Cy5-cRGD”, the tumor/skin ratio (HEK293(β3) s.c. tumors [3]; intravenous injection, HEK293(β3) tumors, time not stated (abstract)) was “above 15” and the “distribution / internalization in tumor cells of excised tumors (CLSM, words)” value (HEK293(β3) s.c. tumors [4]) was “massively internalized by tumor cells”.
